Data set [1] concerns 661W cells. Briefly: MTT assay, cell viability of 661W cells. Type of data set: cell-based, human. The source says: (§1) The immortalised retinal cells used were as follows: MIO-M1 cells (Muller cell-derived; Müller 1 Moorefields, Institute of Ophthalmology, Dr A. Limb, Institute of Ophthalmology, University College, UK); ARPE19 (RPE-derived; ATCC CRL-2302, American Tissue Culture Collection, VA, USA); and 661W cells (photoreceptor-like derived; kindly gifted by Dr Muayyad R. Al-Ubaidi, Department of Cell Biology, University of Oklahoma Health Sciences Centre, Oklahoma City, OK, USA). Cells were authenticated and validated from Cell Bank Australia.
(§2) The immortalised retinal cell lines MIO-M1, 661W and ARPE19 were used to undertake the MTT assay to assess cell metabolic activity, based on the cell's availability of NAPDH. Treatments included exposure to one of FA (10-0.01 μg/μl, provided by Professor Ben Boyd, Monash University, Australia), TA (10-0.01 μg/p, Honeywell, USA) and Dexamethasone (10-0.0001 μg/μl, Sigma-Aldrich, MO, USA). All corticosteroids used in vitro were dissolved in 20% dimethyl sulfoxide (DMSO) (Sigma-Aldrich, MO, USA) and ultrapure endotoxin 0.1M PBS (Thermo Fisher Scientific, MA, USA). At the 12-hour time point following addition of the corticosteroid, 10p of MTT reagent (Roche, Switzerland) was added to each well. To protect against light, plates were wrapped in foil and stored in the dark at 37° C. for 4 hours at 5.0% CO2. Cells were monitored using a bright field Zeiss Axiovert 200 inverted microscope (Carl Zeiss Meditec, Dublin, CA. USA) for formation of insoluble purple formazan precipitate crystals in viable cells. Subsequently 100p of MTT solubilisation solution was added and once again incubated in darkness at 37° C., 5.0% CO2 for 24 hours. Quantification of the MTT assay was performed by measuring the absorbance at 570 nm using Tecan Infinite® 200 PRO (Tecan, Mannedorf, Switzerland).
(In general: Tetrazolium dyes change colour on reduction, which living cells bring about.)

For data set [2], the system named is ARPE19 cells. Description: MTT assay, cell viability of ARPE19 cells. In kind it is cell-based, human.
Text: as §1, §2

The mark [3] stands for this setting: 10-0.01 μg/μl, 12 h, compared to DMSO-only group.

Entries after “also recorded” stand apart in the source; their conditions may differ.

As to `CC(=O)OCC(=O)[C@@]1(O)CC[C@H]2[C@@H]3CCC4=CC(=O)CC[C@]4(C)[C@@]3(F)[C@@H](O)C[C@@]21C` [FA, 9-α-Fluoro-11 β. 17 α, 21-trihydroxy-4-pregnene-3, 20 dione acetate], in data set [1] (1 μg/μl), the “viability of 661W cells at 1 μg/μl” value is reported as “does not significantly alter cell viability”. In addition, the “viability of 661W cells (MTT assay)” value in data set [1] (setting [3]) is “do not induce toxicity; also recorded: no significant effect”. Moreover, the “viability of ARPE19 cells at 1 μg/μl” value in data set [2] (1 μg/μl) is given as “does not significantly alter cell viability”. Also, the “viability of ARPE-19 cells (MTT assay)” value in data set [2] (setting [3]) is recorded as “do not induce toxicity; also recorded: no significant effect”.

Values taken from patent US20250387410A1, “TREATMENT OF ANTI-VEGF REFRACTORY OPHTHALMIC RETINAL EYE CONDITIONS” (Eye Co Pty Ltd., priority 2022, published 2025).
